The values that follow come from patent US6274588A, “4-phenyl-pyrimidine derivatives” (Hoffmann-La Roche Inc., priority 1999, dated 2001).

The target of the assay is T1, human NK1 receptors (Homo sapiens, UniProt P25103).
T1 construct: expressed in transfected cells; host or cells: CHO cells (Semliki virus expression system), membrane suspension
Briefly: NK1 receptor binding assay, displacement of [3H]substance P. The following applies: human NK1 receptors in CHO cells (Semliki virus expression system), [3H]substance P 0.6 nM, 60 min at room temperature; for Ki: read-out: affinity to the NK-1 receptor, given as pKi (converted). On the procedure: The affinity of test compounds for the NK1 receptor was evaluated at human NK1 receptors in CHO cells infected with the human NK1 receptor (using the Semliki virus expression system) and radiolabelled with [^3 H]substance P (final concentration 0.6 nM). Binding assays were performed in HEPES buffer (50 mM, pH 7.4) containing BSA (0.04 %) leupeptin (8 μg/ml), MnCl2 (3 mM) and phosphoramidon (2 μM). Binding assays consisted of 250 μl of membrane suspension (1.25×10^5 cells/assay tube), […] of buffer of displacing agent and 125 μl of [^3 H]substance P. Displacement curves were determined with at least seven concentrations of the compound. The assay tubes were incubated for 60 min at room temperature after which time the tube contents were rapidly filtered under vacuum through GF/C filters presoaked for 60 min with PEI (0.3%) with 2×2 ml washed of HEPES buffer (50 mM, pH 7.4). The radioactivity retained on the filters was measured by scintillation counting. All assays were performed in triplicate in at least 2 separate experiments.
(In general: In a radioligand displacement assay an active substance lowers the binding of a labelled ligand.)

T1 sequence (P25103 whole entry): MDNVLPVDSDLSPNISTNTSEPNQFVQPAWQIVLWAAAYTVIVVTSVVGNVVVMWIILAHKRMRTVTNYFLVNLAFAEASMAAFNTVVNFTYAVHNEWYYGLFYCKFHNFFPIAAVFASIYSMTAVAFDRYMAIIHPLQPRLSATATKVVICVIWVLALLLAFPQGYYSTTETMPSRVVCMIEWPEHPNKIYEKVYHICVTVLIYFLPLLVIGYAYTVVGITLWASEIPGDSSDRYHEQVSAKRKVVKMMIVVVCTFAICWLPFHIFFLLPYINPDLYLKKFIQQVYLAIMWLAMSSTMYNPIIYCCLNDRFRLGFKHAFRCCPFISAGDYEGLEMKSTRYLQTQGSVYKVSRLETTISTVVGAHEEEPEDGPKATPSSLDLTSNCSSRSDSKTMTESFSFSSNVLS

Regarding “4-(2-Chloro-phenyl)-2-(3-dimethylamino-ethoxy)-pyrimidine-5-carboxylic acid(3,5-bis-trifluoromethyl-benzyl)-methyl-amide”, the “affinity to the NK-1 receptor, given as pKi” value was found to be 8.11. On to `CN(C)CCOc1ncc(C(=O)N(C)Cc2cc(C(F)(F)F)cc(C(F)(F)F)c2)c(-c2ccccc2Cl)n1` [Example 52, 4-(2-Chloro-phenyl)-2-(2-dimethylamino-ethoxy)-pyrimidine-5-carboxylic Acid (3,5-bis-trifluoromethyl-benzyl)-methyl-amide], for which the Ki is 3.55 nM. For the compound `CN(C)CCCOc1ncc(C(=O)N(C)Cc2cc(C(F)(F)F)cc(C(F)(F)F)c2)c(-c2ccccc2Cl)n1` [Example 53, 4-(2-Chloro-phenyl)-2-(3-dimethylamino-propoxy)-pyrimidine-5-carboxylic Acid (3,5-bis-trifluoromethyl-benzyl)-methyl-amide], the Ki is 1.74 nM.

With `Cc1cc(F)ccc1-c1nc(N2CCNCC2)ncc1C(=O)N(C)Cc1cc(C(F)(F)F)cc(C(F)(F)F)c1` [Example 84, 4-(4-Fluor-2-methyl-phenyl)-2-piperazin-1-yl-pyrimidine-5-carboxylic Acid (3,5-bis-trifluoromethyl-benzyl)-methyl-amide], the Ki was 0.724 nM.

In the case of `CN1CCN(c2ncc(C(=O)N(C)Cc3cc(C(F)(F)F)cc(C(F)(F)F)c3)c(-c3cccc4ccccc34)n2)CC1` [Example 88, 2-(4-Methyl-piperazin-1-yl)-4-naphthalen-1-yl-pyrimidine-5-carboxylic Acid (3,5-bis-trifluoromethyl-benzyl)-methyl-amide], the Ki is 2.88 nM.
